Data: paper PMC6213900, “Design, Synthesis, and Cytotoxic Analysis of Novel Hederagenin–Pyrazine Derivatives Based on Partial Least Squares Discriminant Analysis” (International Journal of Molecular Sciences, 2018)

Tests used:
[1] = test system: HepG2 (human hepatocellular carcinoma); assay: MTT cytotoxicity assay, HepG2; format: cell-based; conditions: for IC50: Homo sapiens, HepG2, MTT, 72 h treatment, read-out: Half Maximal Inhibitory Concentration (IC50) HepG2
Description: (§1) The cytotoxicity of hederagenin derivatives in vitro was evaluated on three tumor cell lines (A549: human non-small-cell lung cancer; MCF-7: human mammary cancer; HepG2: human hepatocellular carcinoma) using the 3-(4,5-dimethylthiazol-2-yl)-2,5-diphenyltetrazolium bromide (MTT) assay. In addition, their toxicity evaluations were tested on H9c2 (murine heart myoblast) and MDCK (Madin–Darby canine kidney) cells. MCF-7, A549, HepG2, H9c2, and MDCK cells were obtained from the Chinese Academy of Medical Sciences and Peking Union Medical College. All of the cell lines were maintained in Dulbecco’s modified Eagle medium (DMEM) supplemented with 1% (v/v) penicillin/streptomycin and 10% (v/v) fetal bovine serum (FBS; Thermo Technologies, New York, NY, USA) under a humidified atmosphere containing 5% CO2 at 37 °C. The stock solutions of He derivatives were dissolved in dimethyl sulfoxide (DMSO; Sigma, St. Louis, MO, USA) and added at various concentrations to the cell culture. Cellular morphologies were observed using an inverted fluorescence microscope (Olympus IX71, Tokyo, Japan), a plate reader (BIORAD 550 spectrophotometer, Bio-rad Life Science Development Ltd., Beijing, China), and a Canton 2 flow cytometer (BD, New York, NY, USA). The antitumor activity of these compounds were evaluated on MCF-7, A549, HepG2, MDCK, and H9c2 cell lines using the MTT assay. Cells at a density of 3 × 10^3 cells/well were plated in a 96-multiwell plate in DMEM containing 10% FBS for 24 h at 37 °C with 5% CO2. Then, cells were treated for 72 h with the required concentrations (3.125, 6.25, 12.5, 25, or 50 μM) of the compounds and reference drugs (He and DDP) dissolved with the vehicle DMSO. After that, the culture substrate was replaced with 200 μL of DMEM containing 20 μL of MTT solution at 5 mg/mL and incubated for 4 h. The supernatant was removed and the dissolved formazans precipitated with 120 μL of DMSO. Wells without drugs were used as blanks. A plate reader was used to determine the absorbance at 490 nm. The above steps were repeated three times. The IC50 values were defined as the concentration of the compound which gave 50% growth inhibition, and they were calculated using Graph Pad Prism 5. The inhibition rate was calculated using the following formula, where OD is the optical density:% inhibition = 1 − (Sample group OD/Control group OD) × 100%. (1)

[2] = test system: MCF-7 (human mammary cancer); assay: MTT cytotoxicity assay, MCF-7; format: cell-based; conditions: Homo sapiens, MCF7, 72 h treatment, read-out: Half Maximal Inhibitory Concentration (IC50) MCF-7
Description: as §1

[3] = test system: A549 (human non-small-cell lung cancer); assay: MTT cytotoxicity assay, A549; format: cell-based; conditions: Homo sapiens, A549, 72 h treatment, read-out: Half Maximal Inhibitory Concentration (IC50) A549
Description: as §1

[4] = test system: MDCK (Madin–Darby canine kidney) cells; assay: MTT toxicity evaluation, MDCK; format: cell-based; conditions: Canis lupus familiaris, MDCK, 72 h treatment, non-tumor cells, read-out: Half Maximal Inhibitory Concentration (IC50) MDCK
Description: as §1

[5] = test system: H9c2 (murine heart myoblast); assay: MTT toxicity evaluation, H9c2; format: cell-based; conditions: H9c2, 72 h treatment, non-tumor cells, read-out: Half Maximal Inhibitory Concentration (IC50) H9c2
Description: as §1

Work on Cc1ncc(C(=O)OCCOC(=O)[C@]23CCC(C)(C)CC2C2=CCC4[C@@]5(C)CC[C@H](O)[C@@](C)(CO)C5CC[C@@]4(C)[C@]2(C)CC3)nc1C (stereo partly drawn) [Compound 12, 2-(((4aS,6aS,6bR,9R,10S,12aR)-10-Hydroxy-9-(hydroxymethyl)-2,2,6a,6b,9,12a-hexamethyl-1,2,3,4,4a,5,6,6a,6b,7,8,8a,9,10,11,12,12a,12b,13,14b-icosahydropicene-4a-carbonyl)oxy)ethyl-5,6-dimethylpyrazine-2-carboxylate] yielded an IC50 [1] of 14.42 ± 0.03 µM, an IC50 [2] of 17.3 ± 0.58 µM and an IC50 [3] of 10.1 ± 2.47 µM. For the same molecule, the IC50 [4] was 18.6 ± 0.71 µM, the IC50 [5] was 13.2 ± 0.2 µM and the melting point was 146.2 °C.
For Cc1nc(C)c(C(=O)OCCOC(=O)[C@]23CCC(C)(C)CC2C2=CCC4[C@@]5(C)CC[C@H](O)[C@@](C)(CO)C5CC[C@@]4(C)[C@]2(C)CC3)nc1C (stereo partly drawn) [Compound 13, 2-(((4aS,6aS,6bR,9R,10S,12aR)-10-Hydroxy-9-(hydroxymethyl)-2,2,6a,6b,9,12a-hexamethyl-1,2,3,4,4a,5,6,6a,6b,7,8,8a,9,10,11,12,12a,12b,13,14b-icosahydropicene-4a-carbonyl)oxy)ethyl-3,5,6-trimethylpyrazine-2-carboxylate], the IC50 [1] was 13.2 ± 0.29 µM, the IC50 [2] was 18.03 ± 0.18 µM and the IC50 [3] was 8.15 ± 0.17 µM. It also gave an IC50 [4] of 23.22 ± 0.01 µM, an IC50 [5] of 10.5 ± 0.61 µM and a melting point of 150.6 °C.
For CC1(C)CC[C@]2(C(=O)OCCCCOC(=O)c3cnccn3)CC[C@]3(C)C(=CCC4[C@@]5(C)CC[C@H](O)[C@@](C)(CO)C5CC[C@]43C)C2C1 (stereo partly drawn) [Compound 14, 4-(((4aS,6aS,6bR,9R,10S,12aR)-10-Gydroxy-9-(hydroxymethyl)-2,2,6a,6b,9,12a-hexamethyl-1,2,3,4,4a,5,6,6a,6b,7,8,8a,9,10,11,12,12a,12b,13,14b-icosahydropicene-4a-carbonyl)oxy)butyl-pyrazine-2-carboxylate], the IC50 [1] was 7.05 ± 0.17 µM, the “selective inhibition (SI = IC50 MCF-7/IC50 HepG2)” value ([1]; ratio of IC50 MCF-7 to IC50 HepG2) was 4.43 and the IC50 [2] was 31.23 ± 0.15 µM. It also gave an IC50 [3] of 17.6 ± 2.33 µM, an IC50 [4] of 18.1 ± 0.12 µM and an IC50 [5] of 15.9 ± 0.22 µM. For the same molecule, the melting point was 127 °C.
Cc1cncc(C(=O)OCCCCOC(=O)[C@]23CCC(C)(C)CC2C2=CCC4[C@@]5(C)CC[C@H](O)[C@@](C)(CO)C5CC[C@@]4(C)[C@]2(C)CC3)n1 (stereo partly drawn) [Compound 15, 4-(((4aS,6aS,6bR,9R,10S,12aR)-10-Hydroxy-9-(hydroxymethyl)-2,2,6a,6b,9,12a-hexamethyl-1,2,3,4,4a,5,6,6a,6b,7,8,8a,9,10,11,12,12a,12b,13,14b-icosahydropicene-4a-carbonyl)oxy)butyl-6-methylpyrazine-2-carboxylate] gave an IC50 [1] of 6.71 ± 0.2 µM, an IC50 [2] of 19.8 ± 1.27 µM and an IC50 [3] of 17.98 ± 0.04 µM. The IC50 [4] was 17.1 ± 1.01 µM, the IC50 [5] was 17.6 ± 1.85 µM and the melting point was 128 °C.
For Cc1cnc(C(=O)OCCCCOC(=O)[C@]23CCC(C)(C)CC2C2=CCC4[C@@]5(C)CC[C@H](O)[C@@](C)(CO)C5CC[C@@]4(C)[C@]2(C)CC3)cn1 (stereo partly drawn) [Compound 16, 4-(((4aS,6aS,6bR,9R,10S,12aR)-10-Hydroxy-9-(hydroxymethyl)-2,2,6a,6b,9,12a-hexamethyl-1,2,3,4,4a,5,6,6a,6b,7,8,8a,9,10,11,12,12a,12b,13,14b-icosahydropicene-4a-carbonyl)oxy)butyl-5-methylpyrazine-2-carboxylate], the IC50 [1] was 6.99 ± 0.63 µM, the IC50 [2] was 28.49 ± 0.28 µM and the IC50 [3] was 24.8 ± 0.66 µM. It also gave an IC50 [4] of 20.12 ± 0.06 µM, an IC50 [5] of 14.99 ± 0.12 µM and a melting point of 166.1 °C.
Cc1nccnc1C(=O)OCCCCOC(=O)[C@]12CCC(C)(C)CC1C1=CCC3[C@@]4(C)CC[C@H](O)[C@@](C)(CO)C4CC[C@@]3(C)[C@]1(C)CC2 (stereo partly drawn) [Compound 17, 4-(((4aS,6aS,6bR,9R,10S,12aR)-10-Hydroxy-9-(hydroxymethyl)-2,2,6a,6b,9,12a-hexamethyl-1,2,3,4,4a,5,6,6a,6b,7,8,8a,9,10,11,12,12a,12b,13,14b-icosahydropicene-4a-carbonyl)oxy)butyl-3-methylpyrazine-2-carboxylate] showed an IC50 [1] of 8.15 ± 0.22 µM, an IC50 [2] of 22.9 ± 0.66 µM and an IC50 [3] of 19.6 ± 0.22 µM. The IC50 [4] was 20.9 ± 3.03 µM, the IC50 [5] was 22.3 ± 0.3 µM and the melting point was 145.2 °C.
Molecule Cc1ncc(C(=O)OCCCCOC(=O)[C@]23CCC(C)(C)CC2C2=CCC4[C@@]5(C)CC[C@H](O)[C@@](C)(CO)C5CC[C@@]4(C)[C@]2(C)CC3)nc1C (stereo partly drawn) [Compound 18, 4-(((4aS,6aS,6bR,9R,10S,12aR)-10-Hydroxy-9-(hydroxymethyl)-2,2,6a,6b,9,12a-hexamethyl-1,2,3,4,4a,5,6,6a,6b,7,8,8a,9,10,11,12,12a,12b,13,14b-icosahydropicene-4a-carbonyl)oxy)butyl-5,6-dimethylpyrazine-2-carboxylate] has an IC50 [1] of 11.9 ± 0.99 µM, an IC50 [2] of 28.3 ± 0.41 µM and an IC50 [3] of 16.17 ± 0.15 µM. For the same molecule, the IC50 [4] was 16.6 ± 0.22 µM, the IC50 [5] was greater than 30 µM and the melting point was 134.7 °C.
Cc1nc(C)c(C(=O)OCCCCOC(=O)[C@]23CCC(C)(C)CC2C2=CCC4[C@@]5(C)CC[C@H](O)[C@@](C)(CO)C5CC[C@@]4(C)[C@]2(C)CC3)nc1C (stereo partly drawn) [Compound 19, 4-(((4aS,6aS,6bR,9R,10S,12aR)-10-Hydroxy-9-(hydroxymethyl)-2,2,6a,6b,9,12a-hexamethyl-1,2,3,4,4a,5,6,6a,6b,7,8,8a,9,10,11,12,12a,12b,13,14b-icosahydropicene-4a-carbonyl)oxy)butyl-3,5,6-trimethylpyrazine-2-carboxylate] showed an IC50 [1] of 9.06 ± 0.32 µM, an IC50 [2] of 27.6 ± 0.52 µM and an IC50 [3] of 12.2 ± 0.4 µM. The IC50 [4] was 16.43 ± 0.04 µM, the IC50 [5] was 16.5 ± 0.22 µM and the melting point was 110.1 °C.
With CC1(C)CC[C@]2(C(=O)OCCCCCl)CC[C@]3(C)C(=CCC4[C@@]5(C)CC[C@H](O)[C@@](C)(COC(=O)c6cnccn6)C5CC[C@]43C)C2C1 (stereo partly drawn) [Compound 21, ((3S,4R,6aR,6bS,8aS,14bR)-8a-((4-Chlorobutoxy)carbonyl)-3-hydroxy-4,6a,6b,11,11,14b-hexamethyl-1,2,3,4,4a,5,6,6a,6b,7,8,8a,9,10,11,12,12a,14,14a,14b-icosahydropicen-4-yl)methyl-pyrazine-2-carboxylate] the IC50 [1] was 7.99 ± 0.12 µM, the IC50 [2] was 24.98 ± 0.18 µM and the IC50 [3] was 9.29 ± 0.99 µM. It also gave an IC50 [4] of 14.85 ± 0.06 µM, an IC50 [5] of 16.68 ± 0.1 µM and a melting point of 117.1 °C.
Molecule Cc1cncc(C(=O)OC[C@@]2(C)C3CC[C@]4(C)C(CC=C5C6CC(C)(C)CC[C@]6(C(=O)OCCCCCl)CC[C@]54C)[C@@]3(C)CC[C@@H]2O)n1 (stereo partly drawn) [Compound 22, ((3S,4R,6aR,6bS,8aS,14bR)-8a-((4-Chlorobutoxy)carbonyl)-3-hydroxy-4,6a,6b,11,11,14b-hexamethyl-1,2,3,4,4a,5,6,6a,6b,7,8,8a,9,10,11,12,12a,14,14a,14b-icosahydropicen-4-yl)methyl 6-methylpyrazine-2-carboxylate] has an IC50 [1] of 7.15 ± 0.43 µM, an IC50 [2] of 20.5 ± 3.63 µM and an IC50 [3] of 10.4 ± 0.43 µM. For the same molecule, the IC50 [4] was 16.3 ± 1.57 µM, the IC50 [5] was 16.26 ± 0.07 µM and the melting point was 126.9 °C.
For Cc1cnc(C(=O)OC[C@@]2(C)C3CC[C@]4(C)C(CC=C5C6CC(C)(C)CC[C@]6(C(=O)OCCCCCl)CC[C@]54C)[C@@]3(C)CC[C@@H]2O)cn1 (stereo partly drawn) [Compound 23, ((3S,4R,6aR,6bS,8aS,14bR)-8a-((4-Chlorobutoxy)carbonyl)-3-hydroxy-4,6a,6b,11,11,14b-hexamethyl-1,2,3,4,4a,5,6,6a,6b,7,8,8a,9,10,11,12,12a,14,14a,14b-icosahydropicen-4-yl)methyl 5-methylpyrazine-2-carboxylate], the IC50 [1] was 7.17 ± 1.09 µM, the IC50 [2] was 21.3 ± 1.28 µM and the IC50 [3] was 18.7 ± 0.32 µM. The IC50 [4] was 19.5 ± 2.47 µM, the IC50 [5] was 23.4 ± 0.55 µM and the melting point was 175.8 °C.
With Cc1nccnc1C(=O)OC[C@@]1(C)C2CC[C@]3(C)C(CC=C4C5CC(C)(C)CC[C@]5(C(=O)OCCCCCl)CC[C@]43C)[C@@]2(C)CC[C@@H]1O (stereo partly drawn) [Compound 24, ((3S,4R,6aR,6bS,8aS,14bR)-8a-((4-Chlorobutoxy)carbonyl)-3-hydroxy-4,6a,6b,11,11,14b-hexamethyl-1,2,3,4,4a,5,6,6a,6b,7,8,8a,9,10,11,12,12a,14,14a,14b-icosahydropicen-4-yl)methyl 3-methylpyrazine-2-carboxylate] the IC50 [1] was 6.89 ± 0.21 µM, the IC50 [2] was 17.9 ± 2.8 µM and the IC50 [3] was 22 ± 0.87 µM. It also gave an IC50 [4] of 19.3 ± 1.47 µM, an IC50 [5] of 27.9 ± 0.62 µM and a melting point of 106.1 °C.
